Results taken from patent publication US7238689B2, “Isoxazoline derivative and herbicide comprising the same as active ingredient” (Ihara Chemical Industry Co., Ltd., priority 2001, dated 2007).

Key:
Type in all cases: in vivo
Parameters in all cases: scale not given here
[1] = tested on: Echinochloa oryzicola Vasing; experiment: Herbicidal effect by paddy field soil treatment; conditions: wettable powder, active ingredient 1000 g/ha, examined at the 21st day from the treatment
Method: (§1) A paddy field soil was filled in a plastic pot of 100 cm^2 and subjected to puddling. Then, seeds of Echinochloa oryzicola Vasing and Monochoria vaginalis (Murm. f.) Presl var. plantaginea (Roxb.) Solms-Laub. were sowed and water was filled in a depth of 3 cm. Next day, wettable powders produced in accordance with the Formulation 1 were diluted with water and dropped on the water surface. The application amount of each wettable powder was 1,000 g per 1 hectare in terms of the active ingredient. Then, breeding was made in a greenhouse, and the herbicidal effect of each wettable powder was examined at the 21st day from the treatment in accordance with the standard shown in Table 21.

[2] = tested on: Monochoria vaginalis (Murm. f.) Presl var. plantaginea (Roxb.) Solms-Laub.; experiment: Herbicidal effect by paddy field soil treatment; conditions: wettable powder, active ingredient 1000 g/ha, examined at the 21st day from the treatment
Method: as §1

[3] = tested on: Echinochloa crus-galli (L.) Beauv. var. crusgalli; experiment: Herbicidal effect by upland field soil treatment; conditions: active ingredient 1000 g/ha, examined at 21st day from treatment
Excerpt: (§2) An upland field soil was filled in a plastic pot of 80 cm^2. Seeds of Echinochloa crus-galli (L.) Beauv. var. crusgalli and Setaria viridis (L.) Beauv. were sowed, followed by covering with the same soil. […] Then, breeding was made in a greenhouse, and the herbicidal effect of each wettable powder was examined at the 21st day from the treatment in accordance with the standard shown in Table 21.

[4] = tested on: Setaria viridis (L.) Beauv.; experiment: Herbicidal effect by upland field soil treatment; conditions: active ingredient 1000 g/ha, examined at 21st day from treatment
Excerpt: as §2

Row | Compound | Herbicidal effect index, Echinochloa oryzicola Vasing [1] | Herbicidal effect index, Monochoria vaginalis (Burm. F.) Presl var. plantaginea (Roxb.) Solms-Laub. [2] | herbicidal effect (index per standard of Table 21), Echinochloa curs-galli (L.) Beauv. Var. crus-galli [3] | herbicidal effect (index per standard of Table 21), Setaria viridis (L.) Beauv. [4]
1 | CC1(C)CC(S(=O)(=O)Cc2c(Cl)sc(Cl)c2Cl)=NO1 [2-0006] | 5 | 5 | 5 | 4
2 | CNC(=O)c1c(Cl)sc(Cl)c1CS(=O)(=O)C1=NOC(C)(C)C1 [2-0012] | 5 | 5 | 5 | 5
3 | CC1(C)CC(S(=O)(=O)Cc2c(C(F)(F)F)n[nH]c2Cl)=NO1 [3-0034] | 5 | 5 | 5 | 5
4 | Cn1nc(Cl)c(CS(=O)(=O)C2=NOC(C)(C)C2)c1C(F)(F)F [3-0040] | 5 | 5 | 5 | 5
5 | Cn1nc(C(F)(F)F)c(CS(=O)(=O)C2=NOC(C)(C)C2)c1F [3-0041] | 5 | 5 | 5 | 5
6 | Cn1nc(C(F)(F)F)c(CS(=O)(=O)C2=NOC(C)(C)C2)c1OC(C)(C)C [3-0047] | 5 | 5 | 5 | 5
7 | Cn1nc(C(F)(F)F)c(CS(=O)(=O)C2=NOC(C)(C)C2)c1OC(F)F [3-0054] | 5 | 5 | 5 | 5
8 | Cn1nc(C(F)(F)F)c(CS(=O)(=O)C2=NOC(C)(C)C2)c1OCc1ccccc1 [3-0059] | 5 | 5 | 5 | 5
9 | Cn1nc(C(F)(F)F)c(CS(=O)(=O)C2=NOC(C)(C)C2)c1Oc1ccccc1 [3-0060] | 5 | 5 | 5 | 5
10 | Cn1nc(C(F)(F)F)c(CS(=O)(=O)C2=NOC(C)(C)C2)c1S(=O)(=O)c1ccccc1 [3-0070] | 5 | 5 | 4 | 4
11 | Cn1nc(-c2ccccc2)c(CS(=O)(=O)C2=NOC(C)(C)C2)c1Cl [3-0072] | 5 | 5 | 5 | 5
12 | CC1(C)CC(S(=O)(=O)Cc2c(C(F)(F)F)nn(Cc3ccccc3)c2Cl)=NO1 [3-0087] | 5 | 5 | 5 | 5
13 | CC1(C)CC(S(=O)(=O)Cc2c(Cl)nn(Cc3ccccc3)c2C(F)(F)F)=NO1 [3-0088] | 5 | 5 | 5 | 4
14 | CC1(C)CC(S(=O)(=O)Cc2c(C(F)(F)F)nn(C3CCCCC3)c2Cl)=NO1 [3-0091] | 5 | 5 | 5 | 5
15 | CC1(C)CC(S(=O)(=O)Cc2c(C(F)(F)F)nn(CC(F)F)c2Cl)=NO1 [3-0114] | 5 | 5 | 5 | 5
16 | CC1(C)CC(S(=O)(=O)Cc2c(Cl)nn(CC(F)(F)F)c2C(F)(F)F)=NO1 [3-0117] | 5 | 5 | 5 | 5
17 | CCOCn1nc(Cl)c(CS(=O)(=O)C2=NOC(C)(C)C2)c1C(F)(F)F [3-0121] | 5 | 5 | 5 | 5
18 | COCCn1nc(C(F)(F)F)c(CS(=O)(=O)C2=NOC(C)(C)C2)c1Cl [3-0124] | 5 | 5 | 5 | 5
19 | COCCn1nc(Cl)c(CS(=O)(=O)C2=NOC(C)(C)C2)c1C(F)(F)F [3-0125] | 5 | 5 | 5 | 5
20 | CCOCCn1nc(C(F)(F)F)c(CS(=O)(=O)C2=NOC(C)(C)C2)c1Cl [3-0126] | 5 | 5 | 5 | 5
21 | CCOCCn1nc(Cl)c(CS(=O)(=O)C2=NOC(C)(C)C2)c1C(F)(F)F [3-0127] | 5 | 5 | 5 | 5
22 | CSCn1nc(C(F)(F)F)c(CS(=O)(=O)C2=NOC(C)(C)C2)c1Cl [3-0128] | 5 | 5 | 5 | 5
23 | CSCn1nc(Cl)c(CS(=O)(=O)C2=NOC(C)(C)C2)c1C(F)(F)F [3-0129] | 5 | 5 | 5 | 5
24 | CC1(C)CC(S(=O)(=O)Cc2c(C(F)(F)F)nn(CS(C)(=O)=O)c2Cl)=NO1 [3-0130] | 5 | 5 | 5 | 5
25 | CC1(C)CC(S(=O)(=O)Cc2c(Cl)nn(CS(C)(=O)=O)c2C(F)(F)F)=NO1 [3-0131] | 5 | 5 | 5 | 5
26 | CC1(C)CC(S(=O)(=O)Cc2c(C(F)(F)F)nn(CC#N)c2Cl)=NO1 [3-0134] | 5 | 5 | 5 | 5
27 | CC1(C)CC(S(=O)(=O)Cc2c(Cl)nn(CC#N)c2C(F)(F)F)=NO1 [3-0135] | 5 | 5 | 5 | 5
28 | CCOC(=O)Cn1nc(Cl)c(CS(=O)(=O)C2=NOC(C)(C)C2)c1C(F)(F)F [3-0137] | 5 | 5 | 5 | 5
